Test results taken from US6664213B1, “Liquid pesticide composition” (Nissan Chemical Industries, Ltd., priority 1999, dated 2003).

Key:
[1] = test system: velvetleaf (Abutilon theophrasti); test: Test Example 5: herbicidal effect of Halosulfuron-methyl spray solution with added polyoxyethylene alkyl ethers on velvetleaf; type: in vivo; conditions: scale 0 to 100; spray solution of 75% water dispersible granules of Halosulfuron-methyl alone, 0.1 g/a., five-leaf stage, 2 l/a., 27 days after spraying
Procedure: (§1) A biological test was conducted using spray solutions prepared by adding polyoxyethylene alkyl ethers having different HLB values to a herbicide spray solution.
Biological tests were conducted on velvetleaf (Abutilon theophrasti) using spray solutions prepared by adding polyoxyethylene alkyl ethers having different HLB values to a spray solution of 75% water dispersible granules of Halosulfuron-methyl. To confirm a difference in effect between the polyoxyethylene alkyl ethers, the tests were carried out using a lower concentration of Halosulfuron-methyl than usual. A plastic pot having a diameter of 12 cm was filled with soil, and velvetleaf seeds were sowed in the soil. The solutions were sprayed on velvetleaf of five-leaf stage in an amount of 0.1 g per are (g/a.), calculated as pesticidally active ingredient Halosulfuron-methyl. The amount of the solution sprayed was 2 liters per are (l/a.)and 1,000 ppm of a the polyethylene alkyl ethers were added to the solution. Herbicidal effects were observed and evaluated 27 days after spraying.

[2] = test system: crabgrass(Digitaria ciliaris); test: Test Example 6: herbicidal effect of Quizalofop-p-ethyl spray solution with added polyoxyethylene alkyl ethers on crabgrass; type: in vivo; conditions: scale 0 to 100; spray solution of 40% suspension concentrates of Quizalofop-p-ethyl alone, 125 mg/a., 3 weeks after sowing, 2.5 l/a., 21 days after spraying
Procedure: as §1
Biological tests were conducted on crabgrass(Digitaria ciliaris) using spray solutions prepared by adding polyoxyethylene alkyl ethers having different HLB values to a spray solution of 40% suspension concentrates of Quizalofop-p-ethyl. A plastic pot having a diameter of 12 cm was filled with soil, and crabgrass seeds were sowed in the soil. The solutions were sprayed on in an amount of 125 mg per are (mg/a.), calculated as pesticidally active ingredient Quizalofop-p-ethyl, 3 weeks after the seeds were sowed. The amount of the solution sprayed was 2.5 liters per are (1/a.) and 125 ppm of the polyoxyethylene alkyl ethers were added to the solution. Herbicidal effects on crabgrass were observed and evaluated 21 days after spraying.

COC(=O)c1c(Cl)nn(C)c1S(=O)(=O)NC(=O)Nc1nc(OC)cc(OC)n1 [Halosulfuron-methyl]
Observation evaluation, herbicidal effect of Halosulfuron-methyl on velvetleaf, polyoxyethylene alkyl ether not added [1]: 40

CCOC(=O)[C@@H](C)Oc1ccc(Oc2cnc3cc(Cl)ccc3n2)cc1 [Quizalofop-p-ethyl, ethyl=(R)-2-[4-(6-chloroquinoxalin-2-yloxy)phenoxy]propionate]
Observation evaluation, herbicidal effect of Quizalofop-p-ethyl on crabgrass, polyoxyethylene alkyl ether not added [2]: 25
